Reference: paper PMC3253915 (Molecular Genetics and Metabolism, 2011)

Molecular target: human GALK (Homo sapiens, UniProt P51570)
Assay: GALK inhibition in vitro
Type: biochemical
Conditions: unpublished data

Chain of human GALK (P51570 whole entry): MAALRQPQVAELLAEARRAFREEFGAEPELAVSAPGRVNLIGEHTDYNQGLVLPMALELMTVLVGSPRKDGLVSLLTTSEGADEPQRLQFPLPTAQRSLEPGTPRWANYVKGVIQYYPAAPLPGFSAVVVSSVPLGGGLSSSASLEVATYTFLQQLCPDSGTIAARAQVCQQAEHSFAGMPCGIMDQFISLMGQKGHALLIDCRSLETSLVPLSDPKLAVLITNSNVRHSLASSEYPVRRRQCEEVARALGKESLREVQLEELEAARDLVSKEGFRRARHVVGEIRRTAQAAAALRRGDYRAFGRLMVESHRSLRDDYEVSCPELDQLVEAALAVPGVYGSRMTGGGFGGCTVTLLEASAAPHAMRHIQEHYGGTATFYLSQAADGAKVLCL

With `O=CC[C@@H](O)[C@@H](O)[C@H](O)CO` [2-deoxygalactose] the GALK inhibition (galactose derivative) was “did not result in GALK inhibition”.

`OC[C@H]1OC(O)[C@H](O)[C@@H](O)[C@@H]1O` (stereo partly drawn) [glucose] was tested, and the GALK inhibition (at low millimolar (mM) range) was “no inhibition”.

`O=C(CO)[C@@H](O)[C@H](O)[C@H](O)CO` [fructose] was tested, and the GALK inhibition (at low millimolar (mM) range) was “no inhibition”.
